Experiments:
DLD-1 = assay: MTS assay, DLD-1; type: cell-based; conditions: Homo sapiens, DLD-1, 72 h
Protocol: (§1) Cells were maintained at 37° C., 5% CO2 in RPMI media supplemented with 1% fetal bovine serum, penicillin/streptomycin and fungizone (Invitrogen). Cells were seeded into 96-well tissue culture plates at 3000 per well and cultured at 37° C. for 18 h. Test compounds were dissolved and diluted to 300× in DMSO then diluted 1:40 in DMEM. Cells were incubated with test compounds for 72 hours followed by incubation with tetrazolium compound (3-(4,5-dimethylthiazol-2-yl)-5-(3-carboxymethoxyphenyl)-2-(4-sulfophenyl)-2H-tetrazolium, inner salt; MTS) and the electron coupling reagent, phenazine methosulfate (PMS) for 4 hours. […] The ability of compounds to inhibit cell growth in this assay is correlated with the reduction of dehydrogenase enzyme activity found in metabolically active cells. The measurement of the absorbance of the formazan was assessed using an ENVISION™ (Perkin Elmer) microplate reader at 492 nm. The calculated IC50 value is the concentration of the test compound that causes a 50% decrease in the absorbance.

FGFR2 (N549H) = biological target: T1, FGFR2 (N549H) (Homo sapiens, UniProt P21802, N549H); assay: FGFR2 kinase activity assay (fluorescent ELISA); type: biochemical
T1 construct: purchased Millipore 14-742
Protocol: The enzymatic assays described herein are conducted according to the following procedures from commercially available reagents. In one, non limiting, example, a fluorescent ELISA assay is used to identify and characterize inhibitors of FGFR2 kinase as described herein. This heterogeneous assay utilizes a biotinylated peptide with a tyrosine motif as a substrate and an anti-phospho-tyrosine antibody to measure phosphorylation of the substrate. The reaction is initiated by adding the test compound, 37 μM Pyk2 substrate (Midwest Biotech, Cat. # MBT2383), 12.5 μM ATP (Roche, Cat. #11 140 965 001) and 0.5 μM FGFR2 enzyme (Millipore, Cat. #14-742) sequentially to a non-binding polypropylene V-well plate. All reagents are in an assay buffer consisting of: 50 mM Tris-HCL, 0.02 mg/ml BSA, 10 mM MgCl2, 0.1 mM Na3VO4, 1 mM EGTA, 75 μM ATP, 0.01% NP-40, 2 mM DTT and 10% glycerol. The reaction is incubated for 60 minutes. As the reaction proceeds, FGFR2 phosphorylates tyrosines in the peptide. The reaction mixture is then moved to a blocked streptavidin-coated Nunc Maxisorb plate (coated with 100 ng streptavidin from Pierce (Cat. #15-124) per well), allowing for the capture of the biotinylated peptide. Peptides are captured for 30 minutes at room temperature, the phosphorylation of peptides continues during this phase. The reaction is stopped by washing the streptavidin-coated plate 6 times with TBST. Phosphorylated peptide is detected by adding anti-phospho-tyrosine antibody (Cell Signaling, Cat. #9411, diluted 1:3000) to the streptavidin-coated plate. Unbound anti-phospho-tyrosine antibody is removed by washing the streptavidin-coated plate 6 times with TBST. Secondary detection is performed using alkaline phosphatase tagged goat anti-mouse antibody (Pierce, Cat. #31320, diluted 1:4000) for one hour. Unbound secondary antibody is removed by washing the streptavidin-coated plate 6 times with TBST. The fluorescent readout is initiated by adding to the streptavidin-coated plate Promega Attophos substrate (Promega, Cat. # S1000, dilution=6 mg/10 ml), which, when dephosphorylated by alkaline phosphatase, emits a fluorescent signal of 595 nm in wavelength when excited by a signal of 400 nm in wavelength. The reading of the 595 nm signal is done on the Perkin Elmer Envision system. Compounds which prevent FGFR2 from phosphorylating the peptide result in a lower fluorescent signal. The 595 nm fluorescent signal is directly proportional to the activity of FGFR2. Thus, the inhibition of FGFR2 by compounds is monitored by the decrease in the 595 nm fluorescent signal.

MDA-MB-231 = assay: MTS assay, MDA-MB-231; type: cell-based; conditions: Homo sapiens, MDA-MB-231, 72 h
Protocol: as §1

T1 sequence (P21802 22-821 N549H): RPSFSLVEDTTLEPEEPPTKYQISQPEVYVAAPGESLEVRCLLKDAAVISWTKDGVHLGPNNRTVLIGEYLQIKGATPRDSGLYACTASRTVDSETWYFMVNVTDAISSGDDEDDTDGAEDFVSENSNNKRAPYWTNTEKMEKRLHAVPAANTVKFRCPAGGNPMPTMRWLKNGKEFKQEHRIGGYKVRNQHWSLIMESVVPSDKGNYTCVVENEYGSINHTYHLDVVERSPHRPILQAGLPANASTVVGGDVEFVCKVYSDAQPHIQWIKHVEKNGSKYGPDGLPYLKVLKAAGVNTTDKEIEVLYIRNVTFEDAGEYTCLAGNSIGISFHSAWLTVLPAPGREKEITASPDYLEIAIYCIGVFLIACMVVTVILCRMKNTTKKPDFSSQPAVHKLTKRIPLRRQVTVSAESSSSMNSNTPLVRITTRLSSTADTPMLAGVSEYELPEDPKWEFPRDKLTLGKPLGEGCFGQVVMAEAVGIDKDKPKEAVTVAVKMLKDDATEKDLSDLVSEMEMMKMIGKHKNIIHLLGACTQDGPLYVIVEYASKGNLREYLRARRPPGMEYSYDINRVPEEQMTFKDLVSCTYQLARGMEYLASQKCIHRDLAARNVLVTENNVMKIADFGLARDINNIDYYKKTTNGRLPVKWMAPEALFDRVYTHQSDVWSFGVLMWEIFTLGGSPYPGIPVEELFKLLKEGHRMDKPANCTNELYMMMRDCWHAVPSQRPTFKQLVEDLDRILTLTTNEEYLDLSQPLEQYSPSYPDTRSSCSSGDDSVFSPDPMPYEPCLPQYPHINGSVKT

| inhibition at 30 µM (FGFR2 (N549H)) [%] | SMILES | inhibition at 10 µM (DLD-1) [%] | inhibition at 10 µM (MDA-MB-231) [%] |
| --- | --- | --- | --- |
| 60 | CCOC(=O)CNC(=O)N1CCC(CNc2nccc(-c3cn4c5c(cccc35)CCC4)n2)CC1 [Compound 34, ethyl 2-(4-((4-(5,6-dihydro-4H-pyrrolo[3,2,1-ij]quinolin-1-yl)pyrimidin-2-ylamino)methyl)piperidine-1-carboxamido)acetate] | 65 |  |
|  | O=S(=O)(c1ccc(Cl)cc1)N1CCC(CNc2nccc(-c3cn4c5c(cccc35)CCC4)n2)CC1 [Compound 35, N-((1-(4-chlorophenylsulfonyl)piperidin-4-yl)methyl)-4-(5,6-dihydro-4H-pyrrolo[3,2,1-ij]quinolin-1-yl)pyrimidin-2-amine] | 97 | 98 |
|  | CC(C)(C)C(=O)N1CCC(CNc2nccc(-c3cn4c5c(cccc35)CCC4)n2)CC1 [Compound 36, 1-(4-((4-(5,6-dihydro-4H-pyrrolo[3,2,1-ij]quinolin-1-yl)pyrimidin-2-ylamino)methyl)piperidin-1-yl)-2,2-dimethylpropan-1-one] | 85 |  |
| 102 | c1cc2c3c(c1)c(-c1ccnc(N[C@H]4CCCNC4)n1)cn3CCC2 [Compound 37, (S)-4-(5,6-dihydro-4H-pyrrolo[3,2,1-ij]quinolin-1-yl)-N-(piperidin-3-yl)pyrimidin-2-amine] | 83 | 83 |
| 79 | COc1ccc(NC(=O)N2CCC(CNc3nccc(-c4cn5c6c(cccc46)CCC5)n3)CC2)cc1 [Compound 38, 4-((4-(5,6-dihydro-4H-pyrrolo[3,2,1-ij]quinolin-1-yl)pyrimidin-2-ylamino)methyl)-N-(4-methoxyphenyl)piperidine-1-carboxamide] | 97 | 98 |
| 71 | O=C(Nc1ccc(-c2ccccc2)cc1)N1CCC(CNc2nccc(-c3cn4c5c(cccc35)CCC4)n2)CC1 [Compound 39, N-(biphenyl-4-yl)-4-((4-(5,6-dihydro-4H-pyrrolo[3,2,1-ij]quinolin-1-yl)pyrimidin-2-ylamino)methyl)piperidine-1-carboxamide] | 52 | 31 |
| 68 | CCOC(=O)c1ccc(NC(=O)N2CCC(CNc3nccc(-c4cn5c6c(cccc46)CCC5)n3)CC2)cc1 [Compound 40, ethyl 4-(4-((4-(5,6-dihydro-4H-pyrrolo[3,2,1-ij]quinolin-1-yl)pyrimidin-2-ylamino)methyl)piperidine-1-carboxamido)benzoate] | 98 | 99 |
| 68 | CCOC(=O)NC(=O)N1CCC(CNc2nccc(-c3cn4c5c(cccc35)CCC4)n2)CC1 [Compound 41, ethyl 4-((4-(5,6-dihydro-4H-pyrrolo[3,2,1-ij]quinolin-1-yl)pyrimidin-2-ylamino)methyl)piperidine-1-carbonylcarbamate] |  | 33 |
| 66 | O=C(Nc1ccccc1)N1CCC(CNc2nccc(-c3cn4c5c(cccc35)CCC4)n2)CC1 [Compound 42, 4-((4-(5,6-dihydro-4H-pyrrolo[3,2,1-ij]quinolin-1-yl)pyrimidin-2-ylamino)methyl)-N-phenylpiperidine-1-carboxamide] | 97 | 79 |
| 65 | CCCNC(=O)N1CCC(CNc2nccc(-c3cn4c5c(cccc35)CCC4)n2)CC1 [Compound 43, 4-((4-(5,6-dihydro-4H-pyrrolo[3,2,1-ij]quinolin-1-yl)pyrimidin-2-ylamino)methyl)-N-propylpiperidine-1-carboxamide] | 86 | 43 |
| 65 | O=C(Nc1ccc(Cl)cc1)N1CCC(CNc2nccc(-c3cn4c5c(cccc35)CCC4)n2)CC1 [Compound 44, N-(4-chlorophenyl)-4-((4-(5,6-dihydro-4H-pyrrolo[3,2,1-ij]quinolin-1-yl)pyrimidin-2-ylamino)methyl)piperidine-1-carboxamide] | 97 | 84 |
| 64 | Cc1ccc(NC(=O)N2CCC(CNc3nccc(-c4cn5c6c(cccc46)CCC5)n3)CC2)cc1 [Compound 45, 4-((4-(5,6-dihydro-4H-pyrrolo[3,2,1-ij]quinolin-1-yl)pyrimidin-2-ylamino)methyl)-N-p-tolylpiperidine-1-carboxamide] | 94 | 72 |
| 61 | CC(C)NC(=O)N1CCC(CNc2nccc(-c3cn4c5c(cccc35)CCC4)n2)CC1 [Compound 46, 4-((4-(5,6-dihydro-4H pyrrolo[3,2,1-ij]quinolin-1-yl)pyrimidin-2-ylamino)methyl)-N-isopropylpiperidine-1-carboxamide] | 52 |  |
| 60 | O=C(NCc1ccccc1)N1CCC(CNc2nccc(-c3cn4c5c(cccc35)CCC4)n2)CC1 [Compound 47, N-benzyl-4-((4-(5,6-dihydro-4H-pyrrolo[3,2,1-ij]quinolin-1-yl)pyrimidin-2-ylamino)methyl)piperidine-1-carboxamide] | 98 | 97 |
| 59 | CS(=O)(=O)N1CCC(CNc2nccc(-c3cn4c5c(cccc35)CCC4)n2)CC1 [Compound 48, 4-(5,6-dihydro-4H-pyrrolo[3,2,1-ij]quinolin-1-yl)-N-((1-(methylsulfonyl)piperidin-4-yl)methyl)pyrimidin-2-amine] |  |  |
| 58 | O=C(Nc1cccc(Cl)c1)N1CCC(CNc2nccc(-c3cn4c5c(cccc35)CCC4)n2)CC1 [Compound 49, N-(3-chlorophenyl)-4-((4-(5,6-dihydro-4H-pyrrolo[3,2,1-ij]quinolin-1-yl)pyrimidin-2-ylamino)methyl)piperidine-1-carboxamide] | 96 | 85 |
| 51 | CC(C)(C)NC(=O)N1CCC(CNc2nccc(-c3cn4c5c(cccc35)CCC4)n2)CC1 [Compound 52, N-tert-butyl-4-((4-(5,6-dihydro-4H-pyrrolo[3,2,1-ij]quinolin-1-yl)pyrimidin-2-ylamino)methyl)piperidine-1-carboxamide] | 55 |  |
|  | Cc1nnc(-c2cn3c4c(cccc24)CCC3)o1 [Compound 56, 1-(5-methyl-1,3,4-oxadiazol-2-yl)-5,6-dihydro-4H-pyrrolo[3,2,1-ij]quinoline] | 94 | 77 |
|  | Clc1ccc(-c2nnc(-c3cn4c5c(cccc35)CCC4)o2)cc1 [Compound 63, 1-[5-(4-chlorophenyl)-1,3,4-oxadiazol-2-yl]-5,6-dihydro-4H-pyrrolo[3,2,1-ij]quinoline] | 98 | 100 |
| 91 | c1cc2c3c(c1)c(-c1nnnn1CC1CCNCC1)cn3CCC2 [Compound 81, 1-[1-(piperidin-4-ylmethyl)-1H-tetrazol-5-yl]-5,6-dihydro-4H-pyrrolo[3,2,1-ij]quinoline] |  |  |
| 91 | NC1CCC(n2nnnc2-c2cn3c4c(cccc24)CCC3)CC1 (stereo not shown) [Compound 82, 4-[5-(5,6-dihydro-4H-pyrrolo[3,2,1-ij]quinolin-1-yl)-1H-tetrazol-1-yl]cyclohexanamine] |  |  |
| 84 | c1cc2c3c(c1)c(-c1nnnn1C1CCCNC1)cn3CCC2 (stereo not shown) [Compound 83, 1-(1-piperidin-3-yl-1H-tetrazol-5-yl)-5,6-dihydro-4H-pyrrolo[3,2,1-ij]quinoline] |  |  |
